Test results reported in ChEMBL document CHEMBL1130299, “Time-dependent inhibition of neuronal nitric oxide synthase by N-propargylguanidine” (Bioorg Med Chem Lett, 1997).

Tested on: Nitric oxide synthase 1 (Bos taurus)
Assay: Inactivation constant for Neuronal nitric oxide synthase (nNOS) from bovine brain

SMILES: C#CCNC(=N)N
- K inact: 0.39 min⁻¹
